Earlier results on 6 molecules are cited in patent US5576012A, “Pharmaceutical aqueous formulations containing a sparingly soluble pharmaceutical active compound with a solubilizing polymeric agent” (priority 1990, dated 1996).

Assay in series [1]: not given
This is another data set of the same source.

The structures appear in SMILES notation. Where two headings read alike, the source gives them in different places.

In the case of `CC(C)c1cccc(C(C)C)c1O` [propofol, reference compound], the “water-solubility (in words)” value (active compounds for intravasal use) is “too low to dissolve the therapeutic dose in an acceptable volume”.

For the molecule `OC[C@H]1O[C@@H]2O[C@H]3[C@H](O)[C@@H](O)[C@@H](O[C@H]4[C@H](O)[C@@H](O)[C@@H](O[C@H]5[C@H](O)[C@@H](O)[C@@H](O[C@H]6[C@H](O)[C@@H](O)[C@@H](O[C@H]7[C@H](O)[C@@H](O)[C@@H](O[C@H]8[C@H](O)[C@@H](O)[C@@H](O[C@H]9[C@H](O)[C@@H](O)[C@@H](O[C@H]1[C@H](O)[C@H]2O)O[C@@H]9CO)O[C@@H]8CO)O[C@@H]7CO)O[C@@H]6CO)O[C@@H]5CO)O[C@@H]4CO)O[C@@H]3CO` [γ-CD, γ-cyclodextrin], where the note is “water”, the water-solubility is listed as 25.8%.

With `CCO` [ethanol], the Intravasal hemolytic reactions entry in series [1] (intravasal) was “detectable”.

In the case of `OC[C@H]1O[C@@H]2O[C@H]3[C@H](O)[C@@H](O)[C@@H](O[C@H]4[C@H](O)[C@@H](O)[C@@H](O[C@H]5[C@H](O)[C@@H](O)[C@@H](O[C@H]6[C@H](O)[C@@H](O)[C@@H](O[C@H]7[C@H](O)[C@@H](O)[C@@H](O[C@H]1[C@H](O)[C@H]2O)O[C@@H]7CO)O[C@@H]6CO)O[C@@H]5CO)O[C@@H]4CO)O[C@@H]3CO` [α-CD, α-cyclodextrin], for the setting “cyclodextrins in water”, the water-solubility is 17.4%.

`OC[C@H]1O[C@@H]2O[C@H]3[C@H](O)[C@@H](O)[C@@H](O[C@H]4[C@H](O)[C@@H](O)[C@@H](O[C@H]5[C@H](O)[C@@H](O)[C@@H](O[C@H]6[C@H](O)[C@@H](O)[C@@H](O[C@H]7[C@H](O)[C@@H](O)[C@@H](O[C@H]8[C@H](O)[C@@H](O)[C@@H](O[C@H]1[C@H](O)[C@H]2O)O[C@@H]8CO)O[C@@H]7CO)O[C@@H]6CO)O[C@@H]5CO)O[C@@H]4CO)O[C@@H]3CO` [β-CD, β-cyclodextrin]: the “toxic action on parenteral administration” value in series [1] (administered parenterally) is reported as “nephrotoxic action”.

As to `CC(O)CO` (stereo not drawn) [propylene glycol], the Intravasal hemolytic reactions entry in series [1] (in vivo) was “detectable”.
